# Test results published in ChEMBL document CHEMBL2086231, “Novel pleuromutilin derivatives as antibacterial agents: synthesis, biological evaluation and molecular docking studies” (2012).
# System: Staphylococcus aureus
# Assay: Antibacterial activity against methicillin-sensitive Staphylococcus aureus isolate cpu0211 after 18 to 20 hrs by agar dilution method
# Type: functional
row,Compound,MIC [µg/mL]
1,C=C[C@]1(C)C[C@@H](OC(=O)CSCc2csc(NC(=O)CNC3CCCCC3)n2)[C@]2(C)[C@H](C)CC[C@]3(CCC(=O)[C@H]32)[C@@H](C)[C@@H]1O,0.25
2,C=C[C@]1(C)C[C@@H](OC(=O)CSCc2csc(NC(=O)CNCC(=O)OC)n2)[C@]2(C)[C@H](C)CC[C@]3(CCC(=O)[C@H]32)[C@@H](C)[C@@H]1O,0.25
3,CC1(C)S[C@@H]2[C@H](NC(=O)[C@H](N)c3ccc(O)cc3)C(=O)N2[C@H]1C(=O)O [AMOXICILLIN],4

# System: Staphylococcus aureus
# Assay: Antibacterial activity against methicillin-sensitive Staphylococcus aureus isolate cpu0587 after 18 to 20 hrs by agar dilution method
# Type: functional
row,Compound,MIC [µg/mL]
1,C=C[C@]1(C)C[C@@H](OC(=O)CSCc2csc(NC(=O)CNC3CCCCC3)n2)[C@]2(C)[C@H](C)CC[C@]3(CCC(=O)[C@H]32)[C@@H](C)[C@@H]1O,0.25
2,C=C[C@]1(C)C[C@@H](OC(=O)CSCc2csc(NC(=O)CNCC(=O)OC)n2)[C@]2(C)[C@H](C)CC[C@]3(CCC(=O)[C@H]32)[C@@H](C)[C@@H]1O,0.25
3,CC1(C)S[C@@H]2[C@H](NC(=O)[C@H](N)c3ccc(O)cc3)C(=O)N2[C@H]1C(=O)O [AMOXICILLIN],2

# System: Staphylococcus aureus
# Assay: Antibacterial activity against methicillin-sensitive Staphylococcus aureus isolate cpu1044 after 18 to 20 hrs by agar dilution method
# Type: functional
row,Compound,MIC [µg/mL]
1,C=C[C@]1(C)C[C@@H](OC(=O)CSCc2csc(NC(=O)CNC3CCCCC3)n2)[C@]2(C)[C@H](C)CC[C@]3(CCC(=O)[C@H]32)[C@@H](C)[C@@H]1O,0.5
2,C=C[C@]1(C)C[C@@H](OC(=O)CSCc2csc(NC(=O)CNCC(=O)OC)n2)[C@]2(C)[C@H](C)CC[C@]3(CCC(=O)[C@H]32)[C@@H](C)[C@@H]1O,0.5
3,CC1(C)S[C@@H]2[C@H](NC(=O)[C@H](N)c3ccc(O)cc3)C(=O)N2[C@H]1C(=O)O [AMOXICILLIN],1

# System: Staphylococcus aureus
# Assay: Antibacterial activity against methicillin-sensitive Staphylococcus aureus isolate cpu1344 after 18 to 20 hrs by agar dilution method
# Type: functional
row,Compound,MIC [µg/mL]
1,C=C[C@]1(C)C[C@@H](OC(=O)CSCc2csc(NC(=O)CNC3CCCCC3)n2)[C@]2(C)[C@H](C)CC[C@]3(CCC(=O)[C@H]32)[C@@H](C)[C@@H]1O,0.5
2,C=C[C@]1(C)C[C@@H](OC(=O)CSCc2csc(NC(=O)CNCC(=O)OC)n2)[C@]2(C)[C@H](C)CC[C@]3(CCC(=O)[C@H]32)[C@@H](C)[C@@H]1O,0.5
3,CC1(C)S[C@@H]2[C@H](NC(=O)[C@H](N)c3ccc(O)cc3)C(=O)N2[C@H]1C(=O)O [AMOXICILLIN],1

# System: Staphylococcus aureus
# Assay: Antibacterial activity against methicillin-resistant Staphylococcus aureus isolate cpu0446 after 18 to 20 hrs by agar dilution method
# Type: functional
row,Compound,MIC [µg/mL]
1,C=C[C@]1(C)C[C@@H](OC(=O)CSCc2csc(NC(=O)CNC3CCCCC3)n2)[C@]2(C)[C@H](C)CC[C@]3(CCC(=O)[C@H]32)[C@@H](C)[C@@H]1O,0.5
2,C=C[C@]1(C)C[C@@H](OC(=O)CSCc2csc(NC(=O)CNCC(=O)OC)n2)[C@]2(C)[C@H](C)CC[C@]3(CCC(=O)[C@H]32)[C@@H](C)[C@@H]1O,1
3,CC1(C)S[C@@H]2[C@H](NC(=O)[C@H](N)c3ccc(O)cc3)C(=O)N2[C@H]1C(=O)O [AMOXICILLIN],4

# System: Staphylococcus aureus
# Assay: Antibacterial activity against methicillin-resistant Staphylococcus aureus isolate cpu0887 after 18 to 20 hrs by agar dilution method
# Type: functional
row,Compound,MIC [µg/mL]
1,C=C[C@]1(C)C[C@@H](OC(=O)CSCc2csc(NC(=O)CNC3CCCCC3)n2)[C@]2(C)[C@H](C)CC[C@]3(CCC(=O)[C@H]32)[C@@H](C)[C@@H]1O,0.5
2,C=C[C@]1(C)C[C@@H](OC(=O)CSCc2csc(NC(=O)CNCC(=O)OC)n2)[C@]2(C)[C@H](C)CC[C@]3(CCC(=O)[C@H]32)[C@@H](C)[C@@H]1O,1
3,CC1(C)S[C@@H]2[C@H](NC(=O)[C@H](N)c3ccc(O)cc3)C(=O)N2[C@H]1C(=O)O [AMOXICILLIN],0.125

# System: Staphylococcus aureus
# Assay: Antibacterial activity against methicillin-resistant Staphylococcus aureus isolate cpu1098 after 18 to 20 hrs by agar dilution method
# Type: functional
row,Compound,MIC [µg/mL]
1,C=C[C@]1(C)C[C@@H](OC(=O)CSCc2csc(NC(=O)CNC3CCCCC3)n2)[C@]2(C)[C@H](C)CC[C@]3(CCC(=O)[C@H]32)[C@@H](C)[C@@H]1O,0.25
2,C=C[C@]1(C)C[C@@H](OC(=O)CSCc2csc(NC(=O)CNCC(=O)OC)n2)[C@]2(C)[C@H](C)CC[C@]3(CCC(=O)[C@H]32)[C@@H](C)[C@@H]1O,0.5
3,CC1(C)S[C@@H]2[C@H](NC(=O)[C@H](N)c3ccc(O)cc3)C(=O)N2[C@H]1C(=O)O [AMOXICILLIN],4

# System: Staphylococcus aureus
# Assay: Antibacterial activity against methicillin-resistant Staphylococcus aureus isolate cpu3256 after 18 to 20 hrs by agar dilution method
# Type: functional
row,Compound,MIC [µg/mL]
1,C=C[C@]1(C)C[C@@H](OC(=O)CSCc2csc(NC(=O)CNC3CCCCC3)n2)[C@]2(C)[C@H](C)CC[C@]3(CCC(=O)[C@H]32)[C@@H](C)[C@@H]1O,0.5
2,C=C[C@]1(C)C[C@@H](OC(=O)CSCc2csc(NC(=O)CNCC(=O)OC)n2)[C@]2(C)[C@H](C)CC[C@]3(CCC(=O)[C@H]32)[C@@H](C)[C@@H]1O,0.5
3,CC1(C)S[C@@H]2[C@H](NC(=O)[C@H](N)c3ccc(O)cc3)C(=O)N2[C@H]1C(=O)O [AMOXICILLIN],8

# System: Staphylococcus epidermidis
# Assay: Antibacterial activity against methicillin-sensitive Staphylococcus epidermidis isolate cpu0315 after 18 to 20 hrs by agar dilution method
# Type: functional
row,Compound,MIC [µg/mL]
1,C=C[C@]1(C)C[C@@H](OC(=O)CSCc2csc(NC(=O)CNC3CCCCC3)n2)[C@]2(C)[C@H](C)CC[C@]3(CCC(=O)[C@H]32)[C@@H](C)[C@@H]1O,1
2,C=C[C@]1(C)C[C@@H](OC(=O)CSCc2csc(NC(=O)CNCC(=O)OC)n2)[C@]2(C)[C@H](C)CC[C@]3(CCC(=O)[C@H]32)[C@@H](C)[C@@H]1O,4
3,CC1(C)S[C@@H]2[C@H](NC(=O)[C@H](N)c3ccc(O)cc3)C(=O)N2[C@H]1C(=O)O [AMOXICILLIN],0.125

# System: Staphylococcus epidermidis
# Assay: Antibacterial activity against methicillin-sensitive Staphylococcus epidermidis isolate cpu0347 after 18 to 20 hrs by agar dilution method
# Type: functional
row,Compound,MIC [µg/mL]
1,C=C[C@]1(C)C[C@@H](OC(=O)CSCc2csc(NC(=O)CNC3CCCCC3)n2)[C@]2(C)[C@H](C)CC[C@]3(CCC(=O)[C@H]32)[C@@H](C)[C@@H]1O,0.5
2,C=C[C@]1(C)C[C@@H](OC(=O)CSCc2csc(NC(=O)CNCC(=O)OC)n2)[C@]2(C)[C@H](C)CC[C@]3(CCC(=O)[C@H]32)[C@@H](C)[C@@H]1O,0.5
3,CC1(C)S[C@@H]2[C@H](NC(=O)[C@H](N)c3ccc(O)cc3)C(=O)N2[C@H]1C(=O)O [AMOXICILLIN],8

# System: Staphylococcus epidermidis
# Assay: Antibacterial activity against methicillin-sensitive Staphylococcus epidermidis isolate cpu2089 after 18 to 20 hrs by agar dilution method
# Type: functional
row,Compound,MIC [µg/mL]
1,C=C[C@]1(C)C[C@@H](OC(=O)CSCc2csc(NC(=O)CNC3CCCCC3)n2)[C@]2(C)[C@H](C)CC[C@]3(CCC(=O)[C@H]32)[C@@H](C)[C@@H]1O,0.25
2,C=C[C@]1(C)C[C@@H](OC(=O)CSCc2csc(NC(=O)CNCC(=O)OC)n2)[C@]2(C)[C@H](C)CC[C@]3(CCC(=O)[C@H]32)[C@@H](C)[C@@H]1O,0.25
3,CC1(C)S[C@@H]2[C@H](NC(=O)[C@H](N)c3ccc(O)cc3)C(=O)N2[C@H]1C(=O)O [AMOXICILLIN],0.125

# System: Staphylococcus epidermidis
# Assay: Antibacterial activity against methicillin-sensitive Staphylococcus epidermidis isolate cpu1561 after 18 to 20 hrs by agar dilution method
# Type: functional
row,Compound,MIC [µg/mL]
1,C=C[C@]1(C)C[C@@H](OC(=O)CSCc2csc(NC(=O)CNC3CCCCC3)n2)[C@]2(C)[C@H](C)CC[C@]3(CCC(=O)[C@H]32)[C@@H](C)[C@@H]1O,8
2,C=C[C@]1(C)C[C@@H](OC(=O)CSCc2csc(NC(=O)CNCC(=O)OC)n2)[C@]2(C)[C@H](C)CC[C@]3(CCC(=O)[C@H]32)[C@@H](C)[C@@H]1O,1
3,CC1(C)S[C@@H]2[C@H](NC(=O)[C@H](N)c3ccc(O)cc3)C(=O)N2[C@H]1C(=O)O [AMOXICILLIN],0.125

# System: Staphylococcus epidermidis
# Assay: Antibacterial activity against methicillin-resistant Staphylococcus epidermidis isolate cpu2623 after 18 to 20 hrs by agar dilution method
# Type: functional
row,Compound,MIC [µg/mL]
1,C=C[C@]1(C)C[C@@H](OC(=O)CSCc2csc(NC(=O)CNC3CCCCC3)n2)[C@]2(C)[C@H](C)CC[C@]3(CCC(=O)[C@H]32)[C@@H](C)[C@@H]1O,0.25
2,C=C[C@]1(C)C[C@@H](OC(=O)CSCc2csc(NC(=O)CNCC(=O)OC)n2)[C@]2(C)[C@H](C)CC[C@]3(CCC(=O)[C@H]32)[C@@H](C)[C@@H]1O,0.5
3,CC1(C)S[C@@H]2[C@H](NC(=O)[C@H](N)c3ccc(O)cc3)C(=O)N2[C@H]1C(=O)O [AMOXICILLIN],8

# System: Staphylococcus epidermidis
# Assay: Antibacterial activity against methicillin-resistant Staphylococcus epidermidis isolate cpu3889 after 18 to 20 hrs by agar dilution method
# Type: functional
row,Compound,MIC [µg/mL]
1,C=C[C@]1(C)C[C@@H](OC(=O)CSCc2csc(NC(=O)CNC3CCCCC3)n2)[C@]2(C)[C@H](C)CC[C@]3(CCC(=O)[C@H]32)[C@@H](C)[C@@H]1O,1
2,C=C[C@]1(C)C[C@@H](OC(=O)CSCc2csc(NC(=O)CNCC(=O)OC)n2)[C@]2(C)[C@H](C)CC[C@]3(CCC(=O)[C@H]32)[C@@H](C)[C@@H]1O,1
3,CC1(C)S[C@@H]2[C@H](NC(=O)[C@H](N)c3ccc(O)cc3)C(=O)N2[C@H]1C(=O)O [AMOXICILLIN],8

# System: Staphylococcus epidermidis
# Assay: Antibacterial activity against methicillin-resistant Staphylococcus epidermidis isolate cpu3569 after 18 to 20 hrs by agar dilution method
# Type: functional
row,Compound,MIC [µg/mL]
1,C=C[C@]1(C)C[C@@H](OC(=O)CSCc2csc(NC(=O)CNC3CCCCC3)n2)[C@]2(C)[C@H](C)CC[C@]3(CCC(=O)[C@H]32)[C@@H](C)[C@@H]1O,0.5
2,C=C[C@]1(C)C[C@@H](OC(=O)CSCc2csc(NC(=O)CNCC(=O)OC)n2)[C@]2(C)[C@H](C)CC[C@]3(CCC(=O)[C@H]32)[C@@H](C)[C@@H]1O,0.5
3,CC1(C)S[C@@H]2[C@H](NC(=O)[C@H](N)c3ccc(O)cc3)C(=O)N2[C@H]1C(=O)O [AMOXICILLIN],8

# System: Staphylococcus epidermidis
# Assay: Antibacterial activity against methicillin-resistant Staphylococcus epidermidis isolate cpu2736 after 18 to 20 hrs by agar dilution method
# Type: functional
row,Compound,MIC [µg/mL]
1,C=C[C@]1(C)C[C@@H](OC(=O)CSCc2csc(NC(=O)CNC3CCCCC3)n2)[C@]2(C)[C@H](C)CC[C@]3(CCC(=O)[C@H]32)[C@@H](C)[C@@H]1O,1
2,C=C[C@]1(C)C[C@@H](OC(=O)CSCc2csc(NC(=O)CNCC(=O)OC)n2)[C@]2(C)[C@H](C)CC[C@]3(CCC(=O)[C@H]32)[C@@H](C)[C@@H]1O,0.5
3,CC1(C)S[C@@H]2[C@H](NC(=O)[C@H](N)c3ccc(O)cc3)C(=O)N2[C@H]1C(=O)O [AMOXICILLIN],0.125
